The test system of data set [1] is methicillin-resistant S. aureus. Put plainly: microbe, parasite or virus in culture. The following applies: Staphylococcus aureus, MRSA. The class given is cell-based, Staphylococcus aureus. As for the experimental part:
The minimum inhibitory concentrations (MIC) of tigecycline, vancomycin and rifampin were determined using an antibiotic two-fold tube-dilution method. The minimum bactericidal concentrations were also determined. The limits of sensitivity of this method were 25 μg/ml to 0.20 μg/ml.

Data set [2] is described as follows: Antibiotic levels in rabbit serum and bone by diffusion bioassay. The data set is classed as in vivo, New Zealand white rabbits. As for the experimental part: Normal NZW rabbit serum (Fisher Scientific) and normal, uninfected rabbit tibia bone were used to generate standard curves for tigecycline (Wyeth-Ayerst Research, Pearl River, N.Y.), vancomycin (Abbott Laboratories, Chicago, Ill.), and rifampin (Merrell Pharmaceuticals Inc. Kansas, Mo.). Bioassays were performed with each drug to generate the standard curves for antibiotic concentration in serum and/or tibial bone.
The organism used for the bioassay was Bacillus cereus ATCC11778. Serum standards were prepared using two-fold serial dilutions with either antibiotic to yield concentrations of 25 μg/ml to 0.20 μg/ml drug in Normal NZW rabbit serum. Bone eluate standards were prepared for tigecycline by thoroughly cleaning noninfected rabbit tibias with 70% ethanol in a sterilized fume hood. Each tibia was broken into small chips of approximately 0.5 cm^2 using a grinder. The chips were placed into a sterile, 50 ml conical centrifuge tube and weighed. One milliliter of sterile, 0.9% normal saline was added for each gram of bone chips. The solution was thoroughly vortexed for two minutes. The resulting bone eluate was allowed to shake at 180 rpm in a cold room at 4° C., for 12 hours. The samples were centrifuged at 4000 rpm for 3 minutes prior to assay, to pellet the chips.
The diameter of the zone of growth inhibition around each well was measured, in millimeters. A standard curve was generated for tigecycline concentration in both serum and bone eluate and for vancomycin in serum by plotting the known antibiotic concentration against its resulting zone of inhibition measurement. […]
Serum samples were stored at −70° C. until the bioassay was performed. […] The diameter of the zone of growth inhibition around each well was measured and concentrations of tigecycline were extrapolated from the standard curve.
Peak and trough levels of antibiotic were determined for Groups 2 and 4 at 1 hour (peak) and 12 hour (trough) after the initial antibiotic administration. Antibiotic concentrations were determined by means of a bioassay. […]

Data set [3] is described as follows: Pharmacokinetics and tolerability of intravenous tigecycline in humans. The class given is in vivo, human.

In brackets after ≈: the same amount, converted by molar mass.

By half-life is commonly meant how long it takes for the measured level to halve. Higher therefore signals slow loss. With `CN(C)c1cc(NC(=O)CNC(C)(C)C)c(O)c2c1C[C@H]1C[C@H]3[C@H](N(C)C)C(O)=C(C(N)=O)C(=O)[C@@]3(O)C(O)=C1C2=O` [Tigecycline], in data set [1] (read-out: minimum bactericidal concentration (MBC)), the MBC worked out at 0.2 µg/mL (≈ 0.341 µM). Moreover, the MIC in data set [1] (read-out: minimum inhibitory concentration (MIC), MRSA study strain, inoculum 10^6 CFU/ml) is under 0.2 µg/mL. In addition, the concentration at 12 h in data set [2] (New Zealand white, rabbit, serum, subcutaneous, uninfected rabbits, 14 mg/kg twice daily, read-out: serum level at 12 hour (trough)) is over 200 ng/mL. Further, the “antibiotic serum levels (peaks and troughs)” value in data set [2] (infected rabbits, tigecycline 14 mg/kg, vancomycin 30 mg/kg twice daily) is given as “above minimum inhibitory concentrations”. The same compound returned a half-life in data set [3] (human, in vivo, intravenous, humans) of 40 to 60 h. Further, the Vd in data set [3] (human, in vivo, intravenous, humans, read-out: volume of distribution at steady state) was 7 to 14 L/kg. Also, the dose tolerated entry was “up to 100 mg” in data set [3] (one-hour infusion, human subjects) and 25 to 50 mg in data set [3] (twice daily, 200 ml infusion over one hour). The “dose resulting in gastrointestinal intolerance (nausea and vomiting) in all subjects” value in data set [3] (twice daily over nine days, 200 ml infusion over one hour, fed) is recorded as at least 75 mg.
